Legend:
[1] = system: eNOS; conditions: cited from earlier work
[2] = cited from earlier work
[3] = system: malolactic conversion; assay: Effect on malolactic conversion in wine
From the text: Another important process in wine-making is the Malolactic fermentation. Malic acid is naturally present in the grape must, but it adds an unpleasant taste to the wine. […] As discussed above, nearly all red wines undergo malolactic fermentation. As discussed above, the conversion is usually carried out by introducing a lactobacteria (most commonly the Oenococus-Oeni lactobacteria) to the wine after an initial fermentation step. […] Therefore, in wine preserved with resveratrol and/or pterostilbene, the malolactic fermentation can take place during the initial alcohol-fermentation process. That is, no separate step of malic and lactic fermentation needs to be carried out when wine is preserved with resveratrol and/or pterostilbene.

[4] = system: acetobacter xilum; assay: Antibacterial specificity: acetobacter
[5] = system: lactobacilus; assay: Antibacterial specificity: lactobacilli
[6] = system: bacteria and fungi in wine; conditions: cited from earlier work

O=C(O)c1ccccc1 [benzoic acid]
eNOS expression or eNOS promoter activity [1]: enhanced eNOS expression moderately

COc1cc(/C=C/C(=O)O)ccc1O [ferulic acid]
eNOS expression or eNOS promoter activity [1]: did not change

COc1cc(/C=C/c2ccc(O)cc2)cc(OC)c1 [pterostilbene, 4-[(E)-2,(3,5-dimethoxyphenyl)ethenyl]phenol]
water solubility [2]: less water soluble than resveratrol

COc1cc(C=CC(=O)O)cc(OC)c1O (stereo in doubt) [sinapinic acid]
eNOS expression or eNOS promoter activity [1]: did not change

O=C(O)/C=C/c1ccc(O)cc1 [p-coumaric acid]
eNOS expression or eNOS promoter activity [1]: enhanced eNOS expression moderately

COc1cc(C(=O)O)ccc1O [vanillic acid]
eNOS expression or eNOS promoter activity [1]: enhanced eNOS expression moderately

O=C(O)/C=C/c1ccc(O)c(O)c1 [caffeic acid]
eNOS expression or eNOS promoter activity [1]: enhanced eNOS expression moderately

O=C(O)c1cc(O)c(O)c(O)c1 [gallic acid]
eNOS expression or eNOS promoter activity [1]: did not change

O=c1c(O)c(-c2ccc(O)c(O)c2)oc2cc(O)ccc12 [fisetin]
eNOS expression or eNOS promoter activity [1]: did not change

catechin
eNOS expression or eNOS promoter activity [1]: did not change

sulfur dioxide [SO2]
effect on malolactic conversion [3]: suppress the malolactic conversion

O=c1c(O)c(-c2cc(O)c(O)c(O)c2)oc2cc(O)cc(O)c12 [myricetin]
eNOS expression or eNOS promoter activity [1]: did not change

Oc1ccc(/C=C/c2cc(O)cc(O)c2)cc1 [Resveratrol, 3,4′,5-trihydroxy-trans-stilbene]
inhibition of acetobacter xilum [4]: specific inhibitor | anti-bacterial properties against lactobacilus [5]: no anti-bacterial properties | eNOS expression or eNOS promoter activity [1]: most efficacious stimulator | antibacterial and antifungal activity in wine [6]: antibacterial and antifungal activity

Reference: patent US9752110B2, “Method and compositions of preserving wine” (YSDR, LLC, priority 2008, dated 2017)
